Measured values taken from ChEMBL document CHEMBL3885881, “DrugMatrix”.

Species: Rattus norvegicus
Assay: DrugMatrix - Regimen: Daily Repeat
Type: toxicity, organism-based, Sprague-Dawley
Set-up: regimen Daily Repeat, gender Male, age 6-8 weeks
Conditions: in vivo, po, route oral GAVAGE, vehicle 100 % WATER; for ABSOLUTE BASOPHIL / ABSOLUTE EOSINOPHIL / ABSOLUTE LYMPHOCYTE / ABSOLUTE MONOCYTE / ABSOLUTE SEGMENTED NEUTROPHIL / BASOPHIL / EOSINOPHIL / ERYTHROCYTE COUNT / HEMATOCRIT / HEMOGLOBIN / LEUKOCYTE COUNT / LYMPHOCYTE / MEAN CORPUSCULAR HEMOGLOBIN / MEAN CORPUSCULAR HEMOGLOBIN CONCENTRATION / MEAN CORPUSCULAR VOLUME / MONOCYTE / NEUTROPHIL / NUCLEATED RED BLOOD CELLS / PLATELET COUNT: tissue Blood; for ALANINE AMINOTRANSFERASE / ALBUMIN / ALKALINE PHOSPHATASE / ASPARTATE AMINOTRANSFERASE / BLOOD UREA NITROGEN / CARBON DIOXIDE / CHLORIDE / CHOLESTEROL / CREATINE PHOSPHOKINASE / CREATININE / GLUCOSE / LACTATE DEHYDROGENASE / LIPASE / PHOSPHORUS / POTASSIUM / SODIUM / TOTAL BILIRUBIN / TOTAL PROTEIN / URIC ACID: tissue Plasma
[1] = 0 mg/kg, 72 h, dose level Control, time 3 day
[2] = 0 mg/kg, 120 h, dose level Control, time 5 day
[3] = 56 mg/kg, 72 h, dose level Low, time 3 day

CC[C@H]1OC(=O)[C@H](C)[C@@H](O[C@H]2C[C@@](C)(OC)[C@@H](O)[C@H](C)O2)[C@H](C)[C@@H](O[C@@H]2O[C@H](C)C[C@H](N(C)C)[C@H]2O)[C@](C)(OC)C[C@@H](C)C(=O)[C@H](C)[C@@H](O)[C@]1(C)O [CLARITHROMYCIN]
ABSOLUTE BASOPHIL [1]: 0 CELLS/uL
ABSOLUTE EOSINOPHIL [1]: 91.5 CELLS/uL
ABSOLUTE LYMPHOCYTE [1]: 14108.83 CELLS/uL
ABSOLUTE MONOCYTE [1]: 81 CELLS/uL
ABSOLUTE SEGMENTED NEUTROPHIL [1]: 818.67 CELLS/uL
BASOPHIL [1]: 0%
EOSINOPHIL [1]: 0.67%
ERYTHROCYTE COUNT [1]: 5.56 x10E6/uL
HEMATOCRIT [1]: 34.5%
HEMOGLOBIN [1]: 13.45 G/DL
LEUKOCYTE COUNT [1]: 15.1 x10E3/uL
LYMPHOCYTE [1]: 93%
MEAN CORPUSCULAR HEMOGLOBIN [1]: 24.2 pg
MEAN CORPUSCULAR HEMOGLOBIN CONCENTRATION [1]: 38.98 G/DL
MEAN CORPUSCULAR VOLUME [1]: 62.07 fL
MONOCYTE [1]: 0.5%
NEUTROPHIL [1]: 5.83%
NUCLEATED RED BLOOD CELLS [1]: 0 /100WBC
PLATELET COUNT [1]: 1193.33 x10E3/uL
ALANINE AMINOTRANSFERASE [1]: 60.33 u/L
ALBUMIN [1]: 4 G/DL
ALKALINE PHOSPHATASE [1]: 334.83 u/L
ASPARTATE AMINOTRANSFERASE [1]: 74.5 u/L
BLOOD UREA NITROGEN [1]: 13.5 mg/dL
CARBON DIOXIDE [1]: 30.33 mmol/L
CHLORIDE [1]: 98.33 MEQ/L
CHOLESTEROL [1]: 71.17 mg/dL
CREATINE PHOSPHOKINASE [1]: 212 u/L
CREATININE [1]: 0.21 mg/dL
GLUCOSE [1]: 173.17 mg/dL
LACTATE DEHYDROGENASE [1]: 101.5 u/L
LIPASE [1]: 24.17 u/L
PHOSPHORUS [1]: 10.87 mg/dL
POTASSIUM [1]: 6.06 MEQ/L
SODIUM [1]: 140.58 MEQ/L
TOTAL BILIRUBIN [1]: 0.17 mg/dL
TOTAL PROTEIN [1]: 5.9 G/DL
URIC ACID [1]: 1.23 mg/dL
ABSOLUTE BASOPHIL [2]: 0 CELLS/uL
ABSOLUTE EOSINOPHIL [2]: 34.5 CELLS/uL
ABSOLUTE LYMPHOCYTE [2]: 8181 CELLS/uL
ABSOLUTE MONOCYTE [2]: 82.67 CELLS/uL
ABSOLUTE SEGMENTED NEUTROPHIL [2]: 435.17 CELLS/uL
BASOPHIL [2]: 0%
EOSINOPHIL [2]: 0.5%
ERYTHROCYTE COUNT [2]: 5.31 x10E6/uL
HEMATOCRIT [2]: 33.83%
HEMOGLOBIN [2]: 13.37 G/DL
LEUKOCYTE COUNT [2]: 8.73 x10E3/uL
LYMPHOCYTE [2]: 93.5%
MEAN CORPUSCULAR HEMOGLOBIN [2]: 25.2 pg
MEAN CORPUSCULAR HEMOGLOBIN CONCENTRATION [2]: 39.53 G/DL
MEAN CORPUSCULAR VOLUME [2]: 63.73 fL
MONOCYTE [2]: 1%
NEUTROPHIL [2]: 5%
NUCLEATED RED BLOOD CELLS [2]: 0 /100WBC
PLATELET COUNT [2]: 1057.33 x10E3/uL
ALANINE AMINOTRANSFERASE [2]: 54.33 u/L
ALBUMIN [2]: 4.07 G/DL
ALKALINE PHOSPHATASE [2]: 308.67 u/L
ASPARTATE AMINOTRANSFERASE [2]: 83.17 u/L
BLOOD UREA NITROGEN [2]: 14 mg/dL
CARBON DIOXIDE [2]: 34 mmol/L
CHLORIDE [2]: 98 MEQ/L
CHOLESTEROL [2]: 71.33 mg/dL
CREATINE PHOSPHOKINASE [2]: 266.5 u/L
CREATININE [2]: 0.27 mg/dL
GLUCOSE [2]: 133 mg/dL
LACTATE DEHYDROGENASE [2]: 127 u/L
LIPASE [2]: 11.67 u/L
PHOSPHORUS [2]: 10.6 mg/dL
POTASSIUM [2]: 6.17 MEQ/L
SODIUM [2]: 142.68 MEQ/L
TOTAL BILIRUBIN [2]: 0.15 mg/dL
TOTAL PROTEIN [2]: 6.03 G/DL
URIC ACID [2]: 0.75 mg/dL
ABSOLUTE BASOPHIL [3]: 0 CELLS/uL
ABSOLUTE EOSINOPHIL [3]: 59.33 CELLS/uL
ABSOLUTE LYMPHOCYTE [3]: 13806.33 CELLS/uL
ABSOLUTE MONOCYTE [3]: 0 CELLS/uL
ABSOLUTE SEGMENTED NEUTROPHIL [3]: 1301 CELLS/uL
BASOPHIL [3]: 0%
EOSINOPHIL [3]: 0.33%
ERYTHROCYTE COUNT [3]: 5.56 x10E6/uL
HEMATOCRIT [3]: 35.47%
HEMOGLOBIN [3]: 13.53 G/DL
LEUKOCYTE COUNT [3]: 15.17 x10E3/uL
LYMPHOCYTE [3]: 91.67%
MEAN CORPUSCULAR HEMOGLOBIN [3]: 24.37 pg
MEAN CORPUSCULAR HEMOGLOBIN CONCENTRATION [3]: 38.2 G/DL
MEAN CORPUSCULAR VOLUME [3]: 63.77 fL
MONOCYTE [3]: 0%
NEUTROPHIL [3]: 8%
NUCLEATED RED BLOOD CELLS [3]: 0 /100WBC
PLATELET COUNT [3]: 1156.33 x10E3/uL
ALANINE AMINOTRANSFERASE [3]: 46.33 u/L
ALBUMIN [3]: 4.03 G/DL
ALKALINE PHOSPHATASE [3]: 259.67 u/L
ASPARTATE AMINOTRANSFERASE [3]: 70.67 u/L
BLOOD UREA NITROGEN [3]: 12.33 mg/dL
CARBON DIOXIDE [3]: 30.33 mmol/L
CHLORIDE [3]: 99.67 MEQ/L
CHOLESTEROL [3]: 68.33 mg/dL
CREATINE PHOSPHOKINASE [3]: 185.33 u/L
CREATININE [3]: 0.19 mg/dL
GLUCOSE [3]: 143.67 mg/dL
LACTATE DEHYDROGENASE [3]: 137.33 u/L
LIPASE [3]: 10.67 u/L
PHOSPHORUS [3]: 10.87 mg/dL
POTASSIUM [3]: 6.51 MEQ/L
SODIUM [3]: 141.97 MEQ/L
TOTAL BILIRUBIN [3]: 0.2 mg/dL
TOTAL PROTEIN [3]: 5.93 G/DL
URIC ACID [3]: 1.4 mg/dL
